IC50 data for six molecules are collected here from patent US20240116985A1, “STAPLED PEPTIDES AND METHODS THEREOF” (priority 2020, published 2024).

Experiment [1] deals with T1, full-length beta-Catenin (Uniprot ID P35222) (Homo sapiens, UniProt P35222).
T1 construct: 10 nM full-length beta-Catenin (Uniprot ID P35222)
T1 sequence (P35222 1-781): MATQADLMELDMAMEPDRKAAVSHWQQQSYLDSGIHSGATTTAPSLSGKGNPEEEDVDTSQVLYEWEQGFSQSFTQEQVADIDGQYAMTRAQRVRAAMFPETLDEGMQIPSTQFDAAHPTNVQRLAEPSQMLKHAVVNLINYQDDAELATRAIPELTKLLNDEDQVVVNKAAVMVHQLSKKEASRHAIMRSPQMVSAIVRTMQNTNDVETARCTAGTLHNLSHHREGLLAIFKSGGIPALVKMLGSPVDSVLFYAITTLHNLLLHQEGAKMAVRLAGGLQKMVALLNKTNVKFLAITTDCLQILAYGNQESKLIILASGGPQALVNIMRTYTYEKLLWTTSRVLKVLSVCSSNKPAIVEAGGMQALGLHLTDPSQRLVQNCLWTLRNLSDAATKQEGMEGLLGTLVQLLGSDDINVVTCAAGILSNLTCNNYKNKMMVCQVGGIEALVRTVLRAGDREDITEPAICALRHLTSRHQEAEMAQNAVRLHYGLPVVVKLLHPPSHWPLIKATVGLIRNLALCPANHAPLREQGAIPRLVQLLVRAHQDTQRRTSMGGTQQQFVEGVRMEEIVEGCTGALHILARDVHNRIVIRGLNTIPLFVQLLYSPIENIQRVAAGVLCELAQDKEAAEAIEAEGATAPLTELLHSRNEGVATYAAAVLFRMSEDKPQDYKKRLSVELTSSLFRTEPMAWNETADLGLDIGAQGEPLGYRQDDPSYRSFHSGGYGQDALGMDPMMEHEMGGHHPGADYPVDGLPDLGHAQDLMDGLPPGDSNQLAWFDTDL
Nature of the experiment: Fluorescence polarization IC50 (beta-catenin / 5FAM-TCF4 10-53 competition). In kind it is binding. Particulars: fluorescence polarization; read-out: beta-Catenin FP IC50.

The target of experiment [2] is T2, beta-catenin/TCF4 engagement (Homo sapiens, UniProt P35222).
T2 construct: expressed in transfected cells; host or cells: HEK293
T2 sequence (P35222 1-781): T1 sequence (P35222 1-781)
The experiment is described as follows: Nano-BRET target engagement assay (B-cat-Halo & TCF4-Luc in HEK293 cells). Type of experiment: cell-based. Particulars: absolute IC50; read-out: NanoBRET Abs IC50.

Some results are limits rather than exact numbers.

What is called IC50 is the concentration that inhibits the measured activity by half. Turning to `CC(=O)N1CCC[C@]12CC=CCCCC1(CCCC=CCCCOC(=O)N3CC[C@@](C(=O)N[C@@H](Cc4ccccc4C(F)(F)F)C(=O)N[C@@H](Cc4csc5ccccc45)C(=O)N[C@@H](CCC(N)=O)C(=O)N[C@@H](CC(C)C)C(=O)N[C@H](CC(C)C)C(N)=O)(C3)NC(=O)[C@H](CC(C)C)NC(=O)[C@H](Cc3ccccc3)NC(=O)[C@H](C)NC(=O)[C@H](C)NC(=O)[C@H](Cc3cccc(C(=O)O)c3)NC(=O)[C@H](CC(=O)O)NC1=O)NC(=O)[C@H](CC(C)(C)C)NC(=O)[C@H](CC(=O)O)NC2=O` (stereo partly drawn) [I-2396, Ac-PL3-Asp-Npg-B5-Asp-3COOHF-Ala-Ala-Phe-Leu-PyrS2-2F3MeF-BztA-Gln-Leu-dLeu-NH2], the IC50 in experiment [1] turned out to be 187 nM; in experiment [2] it was 8300 nM.

`CC(=O)N1CCC[C@]12CC=CCCCC1(CCCC=CCCCOC(=O)N3CC[C@@](C(=O)N[C@@H](Cc4ccccc4C(F)(F)F)C(=O)N[C@@H](Cc4csc5ccccc45)C(=O)N[C@@H](CCC(N)=O)C(=O)N[C@@H](CC(C)C)C(=O)N[C@@H](C(N)=O)[C@H](C)O)(C3)NC(=O)[C@H](CC(C)C)NC(=O)[C@H](Cc3ccccc3)NC(=O)[C@H](C)NC(=O)[C@H](C)NC(=O)[C@H](Cc3cccc(C(=O)O)c3)NC(=O)[C@H](CC(=O)O)NC1=O)NC(=O)[C@H](CC(C)(C)C)NC(=O)[C@H](CC(=O)O)NC2=O` (stereo partly drawn) [I-2397, Ac-PL3-Asp-Npg-B5-Asp-3COOHF-Ala-Ala-Phe-Leu-PyrS2-2F3MeF-BztA-Gln-Leu-dThr-NH2]: the half-maximal inhibitory concentration (IC50) in experiment [1] stood at 53 nM; in experiment [2], 7800 nM.

Consider `C#CC(=O)N1CCC[C@]12CC=CCCCC1(CCCC=CCCCOC(=O)N3CC[C@@](C(=O)N[C@@H](Cc4ccsc4)C(=O)N[C@@H](Cc4csc5ccccc45)C(=O)N[C@@H](Cc4c[nH]cn4)C(N)=O)(C3)NC(=O)[C@H](CCC(N)=O)NC(=O)[C@H](Cc3ccccc3)NC(=O)[C@H](C)NC(=O)[C@H](C)NC(=O)[C@H](CC(=O)O)NC(=O)[C@H](CC(=O)O)NC1=O)NC(=O)[C@H](CC(C)(C)C)NC(=O)[C@H](CC(=O)O)NC2=O` (stereo partly drawn) [I-2402, PropynOH-PL3-Asp-Npg-B5-Asp-Asp-Ala-Ala-Phe-Gln-PyrS2-3Thi-BztA-His-NH2], for which the IC50 in experiment [1] is 16 nM; in experiment [2], over 20000 nM.

In the case of `C#CC(=O)N1CCC[C@]12CC=CCCCC1(CCCC=CCCCOC(=O)N3CC[C@@](C(=O)N[C@@H](Cc4ccccc4Cl)C(=O)N[C@@H](Cc4csc5ccccc45)C(=O)N[C@@H](C)C(N)=O)(C3)NC(=O)[C@H](CC(C)C)NC(=O)[C@H](Cc3ccccc3)NC(=O)[C@H](C)NC(=O)[C@H](C)NC(=O)[C@H](Cc3cccc(C(=O)O)c3)NC(=O)[C@H](CC(=O)O)NC1=O)NC(=O)[C@H](CC(C)(C)C)NC(=O)[C@H](CC(=O)O)NC2=O` (stereo partly drawn) [I-2403, PropynOH-PL3-Asp-Npg-B5-Asp-3COOHF-Ala-Ala-Phe-Leu-PyrS2-2C1F-BztA-Ala-NH2], the values for the IC50 in experiment [1] and in experiment [2] were 12 nM and over 20000 nM, respectively.

Take `CC(=O)N1CCC[C@]12CC=CCCCC1(CCCC=CCCCOC(=O)N3CC[C@@](C(=O)N[C@@H](Cc4ccsc4)C(=O)N[C@@H](Cc4csc5ccccc45)C(=O)N[C@@H](CCC(N)=O)C(N)=O)(C3)NC(=O)[C@H](CCCNC(=N)N)NC(=O)[C@H](Cc3ccccc3)NC(=O)[C@H](C)NC(=O)C(C)(C)NC(=O)[C@H]([C@@H](C)O)NC(=O)[C@H](CC(N)=O)NC1=O)NC(=O)[C@H](CC(C)(C)C)NC(=O)[C@H](CC(=O)O)NC2=O` (stereo partly drawn) [I-2407, Ac-PL3-Asp-Npg-B5-Asn-Thr-Aib-Ala-Phe-Arg-PyrS2-3Thi-BztA-Gln-NH2]: the IC50 was 138 nM in experiment [1] and over 20000 nM in experiment [2].

On to `CC(=O)N1CCC[C@]12CC=CCCCC1(CCCC=CCCCOC(=O)N3CC[C@@](C(=O)N[C@@H](Cc4ccsc4)C(=O)N[C@@H](Cc4csc5ccccc45)C(=O)N[C@@H](CCC(N)=O)C(N)=O)(C3)NC(=O)[C@H]([C@@H](C)O)NC(=O)[C@H](Cc3ccccc3)NC(=O)[C@H](C)NC(=O)C(C)(C)NC(=O)[C@H]([C@@H](C)O)NC(=O)[C@H](CC(N)=O)NC1=O)NC(=O)[C@H](CC(C)(C)C)NC(=O)[C@H](CC(=O)O)NC2=O` (stereo partly drawn) [I-2409, Ac-PL3-Asp-Npg-B5-Asn-Thr-Aib-Ala-Phe-Thr-PyrS2-3Thi-BztA-Gln-NH2], for which the concentration for half-maximal inhibition (IC50) was 397 nM in experiment [1] and 50000 nM in experiment [2].
